For one experiment, the target named is T1, p97-N (Homo sapiens, UniProt P55072).
T1 construct: Constructs of p97-N (aa 21-199, N-terminal 3 C protease-cleavable His6-tag); His6 (3C protease-cleavable) (N); made in house
The experiment in a line: BLI dose-response binding to the isolated N-domain of p97. The conditions noted are these: for Kd: BLI steady state, 1:1 Langmuir model, errors from the fitting model; for LLEAT: based on KD for p97-N, heavy atom count and clogP; for ScoreBLI: based on sensorgrams from measurements with p97-N, about 1.0 or above = 1:1 binder; for LE: ligand efficiency based on KD for p97-N. The method, then:
The selected 42 fragments of the screen with the N-domain were tested in a dose-dependent manner using concentrations from 1000.0 µM to 31.3 µM in 1:1 dilution steps. […] The sensorgrams of these fragments were fitted with a 1:1 Langmuir model to estimate their affinities and analyzed with respect to the following parameters: (i) The presence of a stationary phase; (ii) curve shapes according to either a homogeneous (1:1) or a heterogeneous (2:1) binding model, and (iii) justification of a 1:1 binding model via the obtained empirical constants kobs of the association phase. Based on these analyses, a ScoreBLI was calculated (for details see Supplementary Methods in the Supporting Information). The calculated ScoreBLI should be close to or above 1.0 for ligands that can be described with a 1:1 model, whereas ligands showing unspecific binding yield values << 1.0. Based on the ScoreBLI, we divided the fragments into a low-scoring (<0.70) and a high-scoring (≥0.70) group.
(§1) Protein constructs for BLI measurements were enzymatically biotinylated using BirA[28]. Biotinylated p97 was loaded on Super Streptavidin Biosensors (SSA) obtained from Sartorius as follows. SSA-sensors were equilibrated in PBS-buffer, loaded with a protein solution containing 50 µg/mL (p97-ND1) or 100 µg/mL (p97-N) protein, blocked with biocytin and washed in PBS buffer. Reference SSA-sensors were set up by blocking them with a 10 µg/mL biocytin solution for 5 min[27]. The SSA-sensors were loaded to a shift of up to 7 nm with p97-ND1 and 10 nm with p97-N, respectively.
(§2) Screening plates were prepared by adding 10 µL of a 10 mM DMSO stock solution of library compound to 190 µL of PBS buffer (containing 0.05% TWEEN 20, 1 mM DTT and 5 mM MgCl2 [only for p97-ND1]) in 96 well plates (Greiner). The final DMSO concentration was 5% (v/v). All BLI measurements were performed on an Octet RED96e (Sartorius) device.
(§3) Selected fragments of the initial screenings were confirmed by dose-response-titrations using six concentrations ranging from 1000 to 31.3 µM in a 1:1 dilution series. Every concentration was measured twice. The assay settings were as follows: baseline measurement 15 s; association time 120 s and dissociation time 180 s. The double referenced data were further analyzed in Origin Pro to estimate the affinity by fitting the signals of the steady states to a 1:1 Langmuir model. For the fitting all measured data points (n = 2) were considered.
Definition of the quality score “ScoreBLI”
For selecting fragments for further analysis, the ScoreBLI was def ined as : […]
SSSSSSSSSSBBBBBB = rrmmmmmmmm 1:1rrmmmmmmmm 2:12 SSkkkkkkkk rmean 1:12 is the mean of the r2 coefficients of t he r egr es s ions of all association phases measured f or a given f ragment. The data were f itted with a 1:1 binding model:
RRPP = RRPPee ?1 − SS −(kkkkkkkk PP ) ? with RRPP the shift at the time t, k obs the empirical rate constant and RRPPee the shift at equilibrium.
In analogy, the rmean 2:12 was def ined by f itting with a 2:1 binding model:
RRPP = RRPPee 1 ?1 − SS −(kkkkkkkk1 PP) ? + RRPPee 2 ?1 − SS −(kkkkkkkk2 PP) ? A ligand f ollowing a 1:1 model would result in a good rmean2 f or both functions, whereas f or a lig and which is better described with a 2:1 model the rmean2 f or a 1:1 model would decrease, resulting in an overall decreased value.
In case of a 1:1 model the empirical rate constant k obs is proportional to the concentration of […]
kkkkkkkk = kkPP [LL ] + kkdd with ka t he association rate constant and kd t he dissociation rate constant. Theref ore, all observed empirical rate constants of a ligand were subjected to a linear regression model, which yielded the value r kobs2 .
A Langmuir model was used to es t im at e the affinities of the fragments. The use of this model requires that a chemical equilibrium is reached. To analyze whether this condition was met, the responses of the last 10 seconds of each association phase were f itted with a linear model. […]

The target of a further experiment is T2, p97-ND1 (Homo sapiens, UniProt P55072).
T2 construct: His6 (TEV protease-cleavable) (N); made in house
T2 sequence (P55072 2-481): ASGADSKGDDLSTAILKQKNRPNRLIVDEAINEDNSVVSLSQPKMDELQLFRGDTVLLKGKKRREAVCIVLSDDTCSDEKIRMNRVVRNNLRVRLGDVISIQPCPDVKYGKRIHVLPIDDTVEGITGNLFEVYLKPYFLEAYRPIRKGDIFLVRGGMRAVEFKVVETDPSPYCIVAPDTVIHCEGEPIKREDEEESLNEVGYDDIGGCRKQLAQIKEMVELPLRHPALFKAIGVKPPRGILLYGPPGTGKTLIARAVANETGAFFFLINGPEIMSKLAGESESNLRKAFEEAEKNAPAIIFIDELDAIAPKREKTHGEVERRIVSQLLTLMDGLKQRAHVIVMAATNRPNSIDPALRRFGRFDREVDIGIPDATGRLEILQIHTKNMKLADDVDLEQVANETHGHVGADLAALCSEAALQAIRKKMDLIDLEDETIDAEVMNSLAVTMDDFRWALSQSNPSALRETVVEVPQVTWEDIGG
The experiment in a line: BLI dose-response binding to the p97-ND1 construct. The conditions noted are these: BLI steady state, 1:1 Langmuir model; errors from the fitting model; read-out: KD p97-ND1.
Description: As starting point for the initial screen, a BLI binding assay was developed with a p97-ND1 construct (amino acids 2-481) to allow validation with adenosine diphosphate (ADP) as a positive control. The p97-ND1 construct was enzymatically biotinylated via an Avi-Tag and Escherichia coli biotin ligase[28] and loaded to high response (>5 nm) on Super Streptavidin Biosensors (SSA), yielding a homogeneous sensor surface. […] The kinetic analysis of the sensorgrams indicated a clear 1:1 binding model for ADP. […] Another surprising result were the high responses upon ADP-binding with shifts over 0.7 nm. These high values indicate that the BLI signal is not only dependent on the molar weight as in SPR but may also reflect conformational changes induced in p97 upon ADP binding.
For 12 fragments, a dose-dependent binding was observed and a 1:1 Langmuir model could be applied to obtain the respective KD value. The determined KD^(p97-ND1) values mostly agreed well with those previously determined for the respective fragments with the isolated N-domain. […] TROLL1 and VIK40 were therefore not considered further.
as §1, §2, §3

T1 sequence (P55072 21-199): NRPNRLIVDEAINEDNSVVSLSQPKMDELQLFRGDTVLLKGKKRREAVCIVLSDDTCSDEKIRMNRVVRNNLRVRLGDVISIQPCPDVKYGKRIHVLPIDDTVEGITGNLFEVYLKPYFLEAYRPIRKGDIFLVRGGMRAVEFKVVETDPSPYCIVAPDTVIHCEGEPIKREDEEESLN

On p97-N, `NCC(O)c1ccc(Br)cc1` (centres unmarked) [TROLL2] displayed a Kd of 56 ± 46 µM, an LLEAT of 0.47, a ScoreBLI of 0.83 and an LE of 0.52. Moreover, the Kd on p97-ND1 stood at 321 ± 67 µM.
The matching figures for `Cc1ccc(-c2cc(N)n[nH]2)o1` [TROLL8]: 245 ± 43 µM, 0.40, 0.91, 0.41 and 598 ± 214 µM.
Regarding `Cc1oc(CN)nc1-c1ccccc1` [TROLL12], on p97-N, the Kd is 354 ± 17 µM, the LLEAT was 0.34, the ScoreBLI is given as 0.84 and the LE is recorded as 0.33.

The Kd is the concentration at which binding is half-saturated.

Values taken from paper PMC9814400 (Communications Chemistry, 2022).
